The values below come from US20220362153A1, “COMPOSITIONS AND METHODS FOR PULMONARY SURFACTANT-BIOMIMETIC NANOPARTICLES” (priority 2019, published 2022).

The subject of this experiment is NC09 H1N1 virus. In kind it is in vivo. Conditions: unimmunized mice, 20 mg/kg/day.

Take `CCOC(=O)C1=C[C@@H](OC(CC)CC)[C@H](NC(C)=O)[C@@H](N)C1` [oseltamivir]: the “control of NC09 viral infection” value is “but not NC09”.
